Measured values: patent publication US4076814A, “Preventive and curative compositions against mycoplasmosis” (Sankyo Company Limited, priority 1975, dated 1978)
In brackets after ≈: the same amount, converted by molar mass. Blank lines part the entries; values can stand above or below the compound they belong to.

Key:
Type in all cases: cell-based
[1] = tested on: Mycoplasma hyorhinis; experiment: Antimicrobial test, conventional agar plate dilution method, Mycoplasma hyorhinis; settings: Mycoplasma, read-out: Minimum Inhibitory Concentration, Mycoplasma hyorhinis
From the text: (§1) ANTIMICROBIAL TEST AGAINST THREE STRAINS OF MYCOPLASMA
(§2) The test was effected by a conventional agar plate dilution method using the indicated strains of mycoplasma. The dithiocarbamic acid derivatives as shown below with Compound Nos. were employed in the test.

[2] = tested on: Mycoplasma pulmonis; experiment: Antimicrobial test, conventional agar plate dilution method, Mycoplasma pulmonis; settings: Mycoplasma, read-out: Minimum Inhibitory Concentration, Mycoplasma pulmonis
From the text: as §1, §2

[3] = tested on: Mycoplasma gallisepticum; experiment: Antimicrobial test, conventional agar plate dilution method, Mycoplasma gallisepticum; settings: Mycoplasmoides gallisepticum, read-out: Minimum Inhibitory Concentration, Mycoplasma gallisepticum
From the text: as §1, §2

SMILES: CCN(CC)C(=S)SCCC(=O)CCc1ccc(OC)cc1 [compound 129, 2-(p-Methoxyhydrocinnamoyl)ethyl diethyldithiocarbamate]
MIC [1]: 0.2 µg/mL (≈ 0.589 µM)
MIC [2]: 0.2 µg/mL (≈ 0.589 µM)
MIC [3]: 0.2 µg/mL (≈ 0.589 µM)

SMILES: O=C(CCSC(=S)N1CCOCC1)c1ccccc1[N+](=O)[O-] [compound 61, 2-(o-Nitrobenzoyl)ethyl 4-morpholinecarbodithioate]
MIC [1]: 1.56 µg/mL (≈ 4.58 µM)
MIC [2]: 0.39 µg/mL (≈ 1.15 µM)
MIC [3]: 0.1 µg/mL (≈ 0.294 µM)

SMILES: Cc1cc(CSC(=S)N2CCCC2C(=O)OCc2ccccc2)cc(C)c1O (stereo not drawn) [compound 191, 4-Hydroxy-3,5-dimethylbenzyl 2-benzyloxycarbonyl-1-pyrrolidinecarbodithioate]
MIC [1]: 3.13 µg/mL (≈ 7.53 µM)
MIC [2]: 1.56 µg/mL (≈ 3.75 µM)
MIC [3]: 1.56 µg/mL (≈ 3.75 µM)

SMILES: CCN(CC)C(=S)SCCC(=O)C=Cc1ccccc1 [compound 135, 2-Cinnamoylethyl diethyldithiocarbamate]
MIC [1]: 0.2 µg/mL (≈ 0.65 µM)
MIC [2]: 0.2 µg/mL (≈ 0.65 µM)
MIC [3]: 0.2 µg/mL (≈ 0.65 µM)

SMILES: O=C1CCCC1CSC(=S)N1CCOCC1 (stereo not drawn) [compound 3, 2-Oxocyclopentylmethyl 4-morpholinecarbodithioate]
MIC [1]: 0.2 µg/mL (≈ 0.771 µM)
MIC [2]: 0.1 µg/mL (≈ 0.386 µM)
MIC [3]: 0.2 µg/mL (≈ 0.771 µM)

SMILES: CCC(=O)CCSC(=S)N1CCOCC1 [compound 101, 2-Propionylethyl 4-morphonlinecarbodithioate]
MIC [1]: 0.1 µg/mL (≈ 0.404 µM)
MIC [2]: 0.1 µg/mL (≈ 0.404 µM)
MIC [3]: 0.1 µg/mL (≈ 0.404 µM)

SMILES: CC(C)c1cc(CSC(=S)N2CCOCC2)cc(C(C)C)c1O [compound 210, 4-Hydroxy-3,5-di-isopropylbenzyl 4-morpholinecarbodithioate]
MIC [1]: 0.39 µg/mL (≈ 1.1 µM)
MIC [2]: 0.39 µg/mL (≈ 1.1 µM)
MIC [3]: 0.39 µg/mL (≈ 1.1 µM)

SMILES: CC(=O)CCSC(=S)N(C)Cc1ccccc1 [compound 82, 2-Acetylethyl benzylmethyldithiocarbamate]
MIC [1]: 0.2 µg/mL (≈ 0.748 µM)
MIC [2]: 0.2 µg/mL (≈ 0.748 µM)
MIC [3]: 0.2 µg/mL (≈ 0.748 µM)

SMILES: Cc1cc(CSC(=S)N(C)C)cc(C)c1O [compound 183, 4-Hydroxy-3,5-dimethylbenzyl dimethyldithiocarbamate]
MIC [1]: 0.2 µg/mL (≈ 0.783 µM)
MIC [2]: 0.2 µg/mL (≈ 0.783 µM)
MIC [3]: 0.2 µg/mL (≈ 0.783 µM)

SMILES: CC(=O)C(CSC(=S)N(C)C)c1ccccc1 (stereo not drawn) [compound 164, 2-Acetyl-2-phenylethyl dimethyldithiocarbamate]
MIC [1]: 0.1 µg/mL (≈ 0.374 µM)
MIC [2]: 0.1 µg/mL (≈ 0.374 µM)
MIC [3]: 0.1 µg/mL (≈ 0.374 µM)

SMILES: CC(=O)C(CSC(=S)N(C)C)Cc1ccccc1 (stereo not drawn) [compound 156, 2-Acetyl-2-benzylethyl dimethyldithiocarbamate]
MIC [1]: 0.2 µg/mL (≈ 0.711 µM)
MIC [2]: 0.2 µg/mL (≈ 0.711 µM)
MIC [3]: 0.2 µg/mL (≈ 0.711 µM)

SMILES: CCN(CC)C(=S)SCC1CCCCC1=O (stereo not drawn) [compound 6, 2-Oxocyclohexylmethyl diethyldithiocarbamate]
MIC [1]: 0.05 µg/mL (≈ 0.193 µM)
MIC [2]: 0.1 µg/mL (≈ 0.385 µM)
MIC [3]: 0.1 µg/mL (≈ 0.385 µM)

SMILES: CN(C)C(=S)SCC1CCCCC1=O (stereo not drawn) [compound 5, 2-Oxocyclohexylmethyl dimethyldithiocarbamate]
MIC [1]: 0.05 µg/mL (≈ 0.216 µM)
MIC [2]: 0.1 µg/mL (≈ 0.432 µM)
MIC [3]: 0.05 µg/mL (≈ 0.216 µM)

SMILES: CC(C)(C)c1cc(C(SC(=S)N2CCCCC2)c2ccccc2)cc(C(C)(C)C)c1O (stereo not drawn) [compound 225, 4-Hydroxy-3,5-di-t-butyl-α-phenylbenzyl 1-piperidinecarbodithioate]
MIC [1]: 0.39 µg/mL (≈ 0.856 µM)
MIC [2]: 0.2 µg/mL (≈ 0.439 µM)
MIC [3]: 0.39 µg/mL (≈ 0.856 µM)

SMILES: CC(=O)CCSC(=S)N1CCOCC1 [compound 91, 2-Acetylethyl 4-morpholinecarbodithioate]
MIC [1]: 0.025 µg/mL (≈ 0.107 µM)
MIC [2]: 0.2 µg/mL (≈ 0.857 µM)
MIC [3]: 0.2 µg/mL (≈ 0.857 µM)

SMILES: CCN(CC)C(=S)SCc1cc(C(C)(C)C)c(O)c(C(C)(C)C)c1 [compound 212, 4-Hydroxy-3,5-di-t-butylbenzyl diethyldithiocarbamate]
MIC [1]: 1.56 µg/mL (≈ 4.24 µM)
MIC [2]: 1.56 µg/mL (≈ 4.24 µM)
MIC [3]: 1.56 µg/mL (≈ 4.24 µM)

SMILES: CC(=O)C(C)CSC(=S)N1CCCCC1 (stereo not drawn) [compound 149, 2-Acetylpropyl 1-piperidinecarbodithioate]
MIC [1]: 0.05 µg/mL (≈ 0.204 µM)
MIC [2]: 0.2 µg/mL (≈ 0.815 µM)
MIC [3]: 0.2 µg/mL (≈ 0.815 µM)

SMILES: Cc1ccccc1C(=O)CCSC(=S)N(C)C [compound 57, 2-(o-Toluoyl)ethyl dimethyldithiocarbamate]
MIC [1]: 0.1 µg/mL (≈ 0.374 µM)
MIC [2]: 0.2 µg/mL (≈ 0.748 µM)
MIC [3]: 0.1 µg/mL (≈ 0.374 µM)

SMILES: CC(=O)CCSC(=S)N1CCN(C)CC1.Cl [compound 93, 2-Acetylethyl 4-methyl-1-piperazinecarbodithioate hydrochloride]
MIC [1]: 0.05 µg/mL
MIC [2]: 0.1 µg/mL
MIC [3]: 0.1 µg/mL

SMILES: Cc1cc(C)c(O)c(CSC(=S)N(C)C)c1 [compound 197, 2-Hydroxy-3,5-dimethylbenzyl dimethyldithiocarbamate]
MIC [1]: 0.2 µg/mL (≈ 0.783 µM)
MIC [2]: 0.39 µg/mL (≈ 1.53 µM)
MIC [3]: 0.39 µg/mL (≈ 1.53 µM)

Second part, the compound after the results:

MIC [1]: 0.78 µg/mL (≈ 2.46 µM)
MIC [2]: 0.78 µg/mL (≈ 2.46 µM)
MIC [3]: 0.2 µg/mL (≈ 0.63 µM)
SMILES: O=c1cc(CO)oc(CSC(=S)N2CCOCC2)c1O [compound 262, 5-Hydroxy-2-hydroxymethyl-4-oxo-4H-pyran-6-ylmethyl-4-morpholinecarbodithioate]

MIC [1]: 3.13 µg/mL (≈ 9.47 µM)
MIC [2]: 3.13 µg/mL (≈ 9.47 µM)
MIC [3]: 1.56 µg/mL (≈ 4.72 µM)
SMILES: CN1CCN(C(=S)SCc2oc(CO)cc(=O)c2O)CC1 [compound 263, 5-Hydroxy-2-hydroxymethyl-4-oxo-4H-pyran-6-ylmethyl-4-methyl-1-piperazinecarbodithioate]

MIC [1]: 0.2 µg/mL (≈ 0.48 µM)
MIC [2]: 0.2 µg/mL (≈ 0.48 µM)
MIC [3]: 0.2 µg/mL (≈ 0.48 µM)
SMILES: CCC(C)c1cc(CSC(=S)N(C)C)cc(CSC(=S)N(C)C)c1O (stereo not drawn) [compound 250, 4-Hydroxy-5-dimethylthiocarbamoylthiomethyl-3-sec-butylbenzyl dimethyldithiocarbamate]

MIC [1]: 0.05 µg/mL (≈ 0.165 µM)
MIC [2]: 0.1 µg/mL (≈ 0.33 µM)
MIC [3]: 0.05 µg/mL (≈ 0.165 µM)
SMILES: CCN(CC)C(=S)SCc1oc(CO)cc(=O)c1O [compound 255, 5-Hydroxy-2-hydroxymethyl-4-oxo-4H-pyran-6-ylmethyl diethyldithiocarbamate]

MIC [1]: 0.39 µg/mL (≈ 1.04 µM)
MIC [2]: 0.78 µg/mL (≈ 2.08 µM)
MIC [3]: 0.78 µg/mL (≈ 2.08 µM)
SMILES: Cc1cc(O)c(CSC(=S)N(C)C)cc1CSC(=S)N(C)C [compound 247, 4-Hydroxy-5-dimethylthiocarbamoylthiomethyl-2-methylbenzyl dimethyldithiocarbamate]

MIC [1]: 0.2 µg/mL (≈ 0.48 µM)
MIC [2]: 0.1 µg/mL (≈ 0.24 µM)
MIC [3]: 0.2 µg/mL (≈ 0.48 µM)
SMILES: CN(C)C(=S)SCc1cc(CSC(=S)N(C)C)c(O)c(C(C)(C)C)c1 [compound 251, 2-Hydroxy-5-dimethylthiocarbamoylthiomethyl-3-t-butylbenzyl dimethyldithiocarbamate]

MIC [1]: 0.39 µg/mL (≈ 1.29 µM)
MIC [2]: 0.78 µg/mL (≈ 2.59 µM)
MIC [3]: 0.78 µg/mL (≈ 2.59 µM)
SMILES: O=c1cc(CO)oc(CSC(=S)N2CCCC2)c1O [compound 258, 5-Hydroxy-2-hydroxymethyl-4-oxo-4H-pyran-6-ylmethyl-1-pyrrolidinecarbodithioate]

MIC [1]: 0.2 µg/mL
MIC [2]: 0.39 µg/mL
MIC [3]: 0.39 µg/mL
SMILES: CCC(C)c1cc(CSC(=S)N(C)C)cc(CN(C)C)c1O.Cl (stereo not drawn) [compound 240, 4-Hydroxy-3-dimethylaminomethyl-5-sec-butylbenzyl dimethyldithiocarbamate hydrochloride]

MIC [1]: 0.2 µg/mL
MIC [2]: 0.2 µg/mL
MIC [3]: 0.2 µg/mL
SMILES: CCCc1cc(CSC(=S)N(C)C)cc(CN(C)C)c1O.Cl [compound 238, 4-Hydroxy-3-dimethylaminomethyl5-n-propylbenzyl dimethyldithiocarbamate hydrochloride]

MIC [1]: 0.1 µg/mL (≈ 0.317 µM)
MIC [2]: 0.1 µg/mL (≈ 0.317 µM)
MIC [3]: 0.1 µg/mL (≈ 0.317 µM)
SMILES: CCN(CC)C(=S)SCc1cc(CO)cc(OC)c1O [compound 242, 2-Hydroxy-3-methoxy-5-hydroxymethylbenzyl diethyldithiocarbamate]

MIC [1]: 0.39 µg/mL (≈ 1.2 µM)
MIC [2]: 0.2 µg/mL (≈ 0.614 µM)
MIC [3]: 0.39 µg/mL (≈ 1.2 µM)
SMILES: CC=Cc1cc(CSC(=S)N(CC)CC)c(O)c(OC)c1 [compound 246, 2-Hydroxy-3-methoxy-5-propenylbenzyl diethyldithiocarbamate]
